This note sets out measurements from ChEMBL document CHEMBL1141267, “Side-chain truncation of apicularen A by olefin cross-metathesis with ethylene” (J Nat Prod, 2007).

Activity calls are given as the source filed them. No cut-off for these calls is given here.

Assay [1] can be described thus: Inhibition of tobacco hornworm V-ATPase. On the set-up: species or system Manduca sexta.
Another assay concerns L929. As to the kind of experiment: Cytotoxicity against mouse L929 cells. The format is functional, cell-based.

Broadly, the IC50 is the concentration that inhibits the measured activity by half. `CC/C=C\C=C/C(=O)N/C=C/C[C@H]1C[C@H]2C[C@H](O)C[C@H](Cc3cccc(O)c3C(=O)O1)O2` [APICULAREN A] showed an IC50 in assay [1] of 20 nM.
Take `C=CC[C@H]1C[C@H]2C[C@H](O)C[C@H](Cc3cccc(O)c3C(=O)O1)O2`: the result in the assay on L929 was inactive.
